Measured values from paper PMC8037810, “L-Glutaminase Synthesis by Marine Halomonas meridiana Isolated from the Red Sea and Its Efficiency against Colorectal Cancer Cell Lines” (Molecules, 2021).

System: T1, L-glutaminase
T1 construct: gene glsA; native enzyme purified from culture supernatant (ammonium sulfate, Sephadex G-200); about 57 kDa by SDS-PAGE
Assay: Nesslerization of released ammonia; Lineweaver-Burk plot
Type: biochemical, Vreelandella aquamarina
Conditions: Tris buffer, 37 °C; pH of kinetic assay not stated (general assay pH 7, optimum pH 8.0); assayed L-glutamine 0.01-0.8 M, far above the printed Km

**Q.** With `NC(=O)CC[C@H](N)C(=O)O` [L-glutamine] as the molecule, how does the Km read?
**A.** 12.2 µM
